Consider 28 compounds from US7759366B2 (Sanofi-Aventis, priority 2006, dated 2010).

This test addresses hCB1R (Homo sapiens, UniProt P21554). The test can be described thus: In vitro functional assay (FLIPR, intracellular Ca2+) with recombinant HEK293 cells, CB1. Type of test: cell-based. Further details: expressed in transfected cells; host or cells: HEK293. The following applies: recombinant HEK293 cells expressing CB1 and Galpha16; 20 min preincubation, then reference agonist; Ca2+ change; read-out: hCB1R: FLIPR; IC50. From the text:
In Vitro Functional Assays with Recombinant Cells:

Structures are written as SMILES.

Chain of hCB1R (P21554 whole entry): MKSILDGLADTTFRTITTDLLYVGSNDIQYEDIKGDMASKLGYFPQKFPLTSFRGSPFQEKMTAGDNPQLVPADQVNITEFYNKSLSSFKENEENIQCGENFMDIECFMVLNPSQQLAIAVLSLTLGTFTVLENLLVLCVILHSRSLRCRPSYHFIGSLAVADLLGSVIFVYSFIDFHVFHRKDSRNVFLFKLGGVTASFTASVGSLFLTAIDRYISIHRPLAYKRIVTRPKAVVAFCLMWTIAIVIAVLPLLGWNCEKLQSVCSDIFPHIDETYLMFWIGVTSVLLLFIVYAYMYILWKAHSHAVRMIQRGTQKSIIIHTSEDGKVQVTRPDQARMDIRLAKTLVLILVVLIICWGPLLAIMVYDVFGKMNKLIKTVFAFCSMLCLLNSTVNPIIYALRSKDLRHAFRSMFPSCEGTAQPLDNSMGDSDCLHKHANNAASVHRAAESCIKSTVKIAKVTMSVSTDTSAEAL

Turning to `CC1(C)C(=O)N(c2ccc(C#N)c(C(F)(F)F)c2)C(=O)N1Cc1ccccc1Nc1ccc(O)cc1` [Example 135, 4-{3-[2-(4-Hydroxyphenylamino)benzyl]-4,4-dimethyl-2,5-dioxoimidazolidin-1-yl}-2-trifluoromethylbenzonitrile], the IC50 is 1 nM. `COC(=O)C1=C[C@@H](O)[C@H](O)[C@@H](Oc2ccc(Nc3ccccc3CN3C(=O)N(c4ccc(C#N)c(C(F)(F)F)c4)C(=O)C3(C)C)cc2)O1` [Example 145, methyl (4R,5S,6S)-6-(4-{2-[3-(4-cyano-3-trifluoromethylphenyl)-5,5-dimethyl-2,4-dioxoimidazolidin-1-ylmethyl]phenylamino}phenoxy)-4,5-dihydroxy-5,6-dihydro-4H-pyran-2-carboxylate]: the IC50 amounted to 14 nM.

`CC(=O)Nc1ccc(Nc2ccccc2CN2C(=O)N(c3ccc(C#N)c(C(F)(F)F)c3)C(=O)C2(C)C)cc1` [Example 148, N-(4-{2-[3-(4-Cyano-3-trifluoromethylphenyl)-5,5-dimethyl-2,4-dioxoimidazolidin-1-ylmethyl]phenylamino}phenyl)acetamide]: the IC50 came out at 11 nM. For the compound `COC(=O)c1ccc(Nc2cc(F)ccc2CN2C(=O)N(c3ccc(F)c(C(F)(F)F)c3)C(=O)C2(C)C)cc1` [Example 154, Methyl 4-{5-fluoro-2-[3-(4-fluoro-3-trifluoromethylphenyl)-5,5-dimethyl-2,4-dioxoimidazolidin-1-ylmethyl]phenylamino}benzoate], the IC50 is 8 nM. The same measure for `COC(=O)c1ccc(Nc2cc(F)ccc2CN2C(=O)N(c3ccc(C#N)c(C4CC4)c3)C(=O)C2(C)C)cc1` [Example 158, Methyl 4-{2-[3-(4-cyano-3-cyclopropylphenyl)-5,5-dimethyl-2,4-dioxoimidazolidin-1-ylmethyl]-5-fluorophenylamino}benzoate]: 9 nM; for `CC1(C)C(=O)N(c2ccc(C#N)c(C3CC3)c2)C(=O)N1Cc1ccc(F)cc1Nc1ccc(C(=O)O)cc1` [Example 159, 4-{2-[3-(4-cyano-3-cyclopropylphenyl)-5,5-dimethyl-2,4-dioxoimidazolidin-1-ylmethyl]-5-fluorophenylamino}benzoic acid]: 2 nM. On to `CC1(C)C(=O)N(c2ccc(C#N)c(C(F)(F)F)c2)C(=O)N1Cc1ccccc1Nc1ccc(C(=O)NCCS(=O)(=O)O)cc1` [Example 164, 2-(4-{2-[3-(4-Cyano-3-trifluoromethylphenyl)-5,5-dimethyl-2,4-dioxoimidazolidin-1-ylmethyl]phenylamino}benzoylamino)ethanesulfonic acid], for which the IC50 was found to be 137 nM. With `Cc1cc(N2C(=O)N(Cc3ccc(F)cc3Nc3ccc(C(=O)O)cc3)C(C)(C)C2=O)ccc1C#N` [Example 166, 4-{2-[3-(4-cyano-3-methylphenyl)-5,5-dimethyl-2,4-dioxoimidazolidin-1-ylmethyl]-5-fluorophenylamino}benzoic acid], the IC50 was 76 nM.

With `CC(C)(C)c1cc(N2C(=O)N(Cc3ccc(F)cc3Nc3ccc(C(=O)O)cc3)C(C)(C)C2=O)ccc1C#N` [Example 169, 4-{2-[3-(3-tert-butyl-4-cyanophenyl)-5,5-dimethyl-2,4-dioxoimidazolidin-1-ylmethyl]-5-fluorophenylamino}benzoic acid], the IC50 is 9 nM. The same measure for `CC1(C)C(=O)N(c2ccc(C#N)c(C(F)(F)F)c2)C(=O)N1Cc1ccccc1Nc1ccc(NS(C)(=O)=O)cc1` [Example 175, N-(4-{2-[3-(4-Cyano-3-trifluoromethylphenyl)-5,5-dimethyl-2,4-dioxoimidazolidin-1-ylmethyl]phenylamino}phenyl)methanesulfonamide]: 9 nM; for `COC(=O)CNc1ccc(Nc2ccccc2CN2C(=O)N(c3ccc(C#N)c(C(F)(F)F)c3)C(=O)C2(C)C)cc1` [Example 177, Methyl (4-{2-[3-(4-cyano-3-trifluoromethylphenyl)-5,5-dimethyl-2,4-dioxoimidazolidin-1-ylmethyl]phenylamino}phenylamino)acetate]: 1 nM. `COC(=O)CN(CC(=O)OC)c1ccc(Nc2ccccc2CN2C(=O)N(c3ccc(C#N)c(C(F)(F)F)c3)C(=O)C2(C)C)cc1` [Example 178]: the IC50 is 4 nM. The same measure for `COc1ncc(Nc2ccccc2CN2C(=O)N(c3ccc(C#N)c(C(F)(F)F)c3)C(=O)C2(C)C)cn1` [Example 180, 4-{3-[2-(2-methoxypyrimidin-5-ylamino)benzyl]-4,4-dimethyl-2,5-dioxoimidazolidin-1-yl}-2-trifluoromethylbenzonitrile]: 1 nM; for `Cc1cnccc1Nc1ccccc1CN1C(=O)N(c2ccc(C#N)c(C(F)(F)F)c2)C(=O)C1(C)C` [Example 181, 4-{4,4-dimethyl-3-[2-(3-methylpyridin-4-ylamino)benzyl]-2,5-dioxoimidazolidin-1-yl}-2-trifluoromethylbenzonitrile]: 8 nM.

As to `Cc1cc(N2C(=O)N(Cc3ccc(F)cc3Nc3ccc(C(N)=O)cc3)C(C)(C)C2=O)ccc1C#N` [Example 190, 4-{2-[3-(4-Cyano-3-methylphenyl)-5,5-dimethyl-2,4-dioxoimidazolidin-1-ylmethyl]-5-fluorophenylamino}benzamide], the IC50 was 76 nM. In the case of `COC(=O)C1=C[C@@H](OC(C)=O)[C@H](OC(C)=O)[C@@H](Oc2ccc(Nc3ccccc3CN3C(=O)N(c4ccc(C#N)c(C(F)(F)F)c4)C(=O)C3(C)C)cc2)O1` [Example 197, methyl (4R,5S,6S)-4,5-diacetoxy-6-(4-{2-[3-(4-cyano-3-trifluoromethylphenyl)-5,5-dimethyl-2,4-dioxoimidazolidin-1-ylmethyl]phenylamino}phenoxy)-5,6-dihydro-4H-pyran-2-carboxylate], the IC50 was found to be 19 nM. With `CC1(C)C(=O)N(c2ccc(C#N)c(C(F)(F)F)c2)C(=O)N1Cc1ccccc1Nc1ccc(O)nn1` [Example 198, 4-{3-[2-(6-Hydroxypyridazin-3-ylamino)benzyl]-4,4-dimethyl-2,5-dioxoimidazolidin-1-yl}-2-trifluoromethylbenzonitrile trifluoroacetic acid], the IC50 came out at 23 nM.

For the compound `CC1(C)C(=O)N(c2ccc(C#N)c(C(F)(F)F)c2)C(=O)N1Cc1ccccc1Nc1ccc2c(c1)C(=O)OC2` [Example 200, 4-{4,4-dimethyl-2,5-dioxo-3-[2-(3-oxo-1,3-dihydroisobenzofuran-5-ylamino)benzyl]imidazolidin-1-yl}-2-trifluoromethylbenzonitrile], the IC50 worked out at 8 nM. Take `CC1(C)C(=O)N(c2ccc(C#N)c(C(F)(F)F)c2)C(=O)N1Cc1ccccc1Nc1ccc2c(c1)COC2=O` [Example 201, 4-{4,4-dimethyl-2,5-dioxo-3-[2-(1-oxo-1,3-dihydroisobenzofuran-5-ylamino)benzyl]imidazolidin-1-yl}-2-trifluoromethylbenzonitrile]: the IC50 came out at 5 nM. With `CC1(C)C(=O)N(c2ccc(F)c(C(F)(F)F)c2)C(=O)N1Cc1ccc(F)cc1Nc1ccc2c(c1)C(=O)CCC2` [Example 204, 1-[4-Fluoro-2-(8-oxo-5,6,7,8-tetrahydronaphthalen-2-ylamino)benzyl]-3-(4-fluoro-3-trifluoromethylphenyl)-5,5-dimethylimidazolidine-2,4-dione], the IC50 was 46 nM.

As for `CC1(C)C(=O)N(c2ccc(F)c(C(F)(F)F)c2)C(=O)N1Cc1ccc(F)cc1Nc1ccc2c(c1)C(=O)CC2` [Example 205, 1-[4-fluoro-2-(3-oxoindan-5-ylamino)benzyl]-3-(4-fluoro-3-trifluoromethylphenyl)-5,5-dimethylimidazolidine-2,4-dione], the IC50 was 17 nM.

On to `CC1(C)C(=O)N(c2ccc(F)c(C(F)(F)F)c2)C(=O)N1Cc1ccc(F)cc1Nc1ccc2c(c1)CCC2=O` [Example 206, 1-[4-fluoro-2-(1-oxoindan-5-ylamino)benzyl]-3-(4-fluoro-3-trifluoromethylphenyl)-5,5-dimethylimidazolidine-2,4-dione], for which the IC50 stood at 24 nM. `CC(C)(C)Oc1ncc(Nc2ccccc2CN2C(=O)N(c3ccc(C#N)c(C(F)(F)F)c3)C(=O)C2(C)C)c(OC(C)(C)C)n1` [Example 208, 4-{3-[2-(2,4-di-tert-butoxypyrimidin-5-ylamino)benzyl]-4,4-dimethyl-2,5-dioxoimidazolidin-1-yl}-2-trifluoromethylbenzonitrile]: the IC50 is 13 nM.

With `CC1(C)C(=O)N(c2ccc(C#N)c(C(F)(F)F)c2)C(=O)N1Cc1ccccc1Nc1ccc2cc(C(=O)O)ccc2c1` [Example 209, 6-{2-[3-(4-cyano-3-trifluoromethylphenyl)-5,5-dimethyl-2,4-dioxoimidazolidin-1-ylmethyl]phenylamino}naphthalene-2-carboxylic acid], the IC50 turned out to be 62 nM. Turning to `CC1(C)C(=O)N(c2ccc(F)c(C(F)(F)F)c2)C(=O)N1Cc1ccc(F)cc1Nc1ccc(S(C)(=O)=O)cc1` [Example 213, 1-[4-fluoro-2-(4-methanesulfonylphenylamino)benzyl]-3-(4-fluoro-3-trifluoromethylphenyl)-5,5-dimethylimidazolidine-2,4-dione], the IC50 is 117 nM. As for `CC(C)(C)c1cc(N2C(=O)N(Cc3ccc(F)cc3Nc3ccc(F)cc3F)C(C)(C)C2=O)ccc1C#N` [Example 221, 2-tert-butyl-4-{3-[2-(2,4-difluorophenylamino)-4-fluorobenzyl]-4,4-dimethyl-2,5-dioxoimidazolidin-1-yl}benzonitrile], the IC50 was found to be 10 nM.

For `CC1(C)C(=O)N(c2ccc(C#N)c(-c3ccc(Cl)cc3)c2)C(=O)N1Cc1ccc(F)cc1Nc1ccc(C(=O)O)cc1` [Example 228, 4-{2-[3-(4′-chloro-6-cyanobiphenyl-3-yl)-5,5-dimethyl-2,4-dioxoimidazolidin-1-ylmethyl]-5-fluorophenylamino}benzoic acid], the IC50 is 61 nM.

As for `COC(=O)C(Cc1ccc(Nc2ccccc2CN2C(=O)N(c3ccc(C#N)c(C(F)(F)F)c3)C(=O)C2(C)C)cc1)C(=O)OC` [Example 232, Dimethyl 2-(4-{2-[3-(4-cyano-3-trifluoromethylphenyl)-5,5-dimethyl-2,4-dioxoimidazolidin-1-ylmethyl]phenylamino}benzyl)malonate], the IC50 turned out to be 112 nM.
